Results: article PMC7898037, “Improving mitochondria and ER stability helps eliminate upper motor neuron degeneration that occurs due to mSOD1 toxicity and TDP‐43 pathology” (Clinical and Translational Medicine, 2021)

Tested on: UMNs of hSOD1^G93A‐UeGFP mice
Test: EM quantification of mitochondria and ER in UMNs, hSOD1^G93A‐UeGFP mice
Format: in vivo
Description: hSOD1^G93A‐UeGFP, prpTDP‐43^A315T‐UeGFP and WT‐UeGFP mice were weighed and the required NU‐9 dose per weight was calculated (20 or 100 mg/kg), which was administered once daily by oral gavage, starting at postnatal day (P)60 and continuing until P120. Animals from the untreated group received the vehicle (NMP and olive oil) only. For oral administration purposes, 20 ga × 38 mm plastic feeding tubes were used (Instech Laboratories, Inc). The gavage tip was inserted into the mouth directly over the tongue and into the pharynx. While observing the swallowing reflex, the tip was safely and smoothly slid into the esophagus. Once the administration was completed, the gavage tip was pulled straight out.
Mice were perfused with EM grade 4% PFA. One hemisphere of the brain was sectioned at 50 µm thickness coronally on a vibratome (Leica VT1000S, Leica Inc., Nussloch, Germany). The sections were postfixed in 2% PFA and 0.5% glutaraldehyde for 1 h, they were cryoprotected with glycerol–dimethylsulfoxide (DMSO) mixture followed by freeze–thaw at least four times, and treated with 1% sodium borohydride. They were then treated with 0.3% H2O2–10% methanol in TBS (100 mM Tris–HCl and 150 mM NaCl, pH 7.6) and 5% normal goat serum–1% bovine serum albumin in TBS to block nonspecific binding of primary antibody. This mixture was incubated overnight with rat anti‐Ctip2 antibody (1:500, Thermo Fisher Scientific, Rockford, IL, USA). Biotinylated goat anti‐rat IgG (1:500, Vector Laboratories, Burlingame, CA, USA) was used as the secondary antibody, and diaminobenzidine (DAB) was applied as the chromogen (ABC Elite kit, Vector Laboratories, Burlingame, CA, USA). Sections were then postfixed in buffered 2% osmium tetroxide (OsO4) (Electron Microscopy Sciences, Hatfield, PA, USA), rinsed with distilled water, and stained in 1% uranyl acetate (Electron Microscopy Sciences, Hatfield, PA, USA), again rinsed with distilled water, dehydrated in ascending grades of ethanol with transition fluid propylene oxide (Electron Microscopy Sciences, Hatfield, PA, USA), embedded in the resin mixture with Embed 812 (Electron Microscopy Sciences, Hatfield, PA, USA), and cured in a 60°C oven for 3 days. The sections in which primary motor cortex was present and visible under bright‐field illumination on a dissecting scope were selected. Approximately, 5‐mm‐wide × 7‐mm‐long pieces of the motor cortex from these sections were dissected under the microscope mounted on a resin block and were sectioned on a Leica Ultracut UC6 ultramicrotome (Leica Inc., Nussloch, Germany). The motor cortex was further trimmed, and only layer 5 was kept intact for preparing ultrathin sections. UMNs were identified based on the presence of Ctip2 immunohistochemistry (DAB) in their nuclei (Figure S1). Seventy‐nanometer‐thin sections were collected on 200‐mesh copper–palladium grids. Grids were counterstained with 8% radioactive depleted uranyl acetate and 0.2% lead citrate. Grids were examined on FEI Tecnai Spirit G2 TEM (FEI company, Hillsboro, OR, USA), and digital images were captured on a FEI Eagle camera.
EM images of Betz cells of normal control and patients, Ctip2‐positive (Ctip2^+) UMN of WT, and hSOD1^G93A‐UeGFP and prpTDP‐43^A315T‐UeGFP mice (Figure S1) were acquired from 70‐nm ultrathin sections of the motor cortex, and EM images were taken on FEI Tecnai Spirit G2 TEM using FEI Eagle camera. Mitochondria were quantified, as described previously. ^34 Mitochondria with intact outer and inner membrane and with intact cristae were considered healthy. Mitochondria with morphological defects, such as broken outer and/or inner membrane and cristae, were counted individually and were reported as percentage of defective mitochondria. ER that are disintegrated and that display profound expansion were considered unhealthy. Length of ER cisternae was measured using line tool of ImageJ software (NIH) upon calibration for pixels/micrometer using set scale function. […]

[1] = hSOD1G93A-UeGFP (NU-9 100 mg/kg/day)
[2] = hSOD1^G93A‐UeGFP mice, 100 mg/kg/day oral gavage P60–P120, at P120

C[C@H](Oc1cc(C(F)(F)F)cc(C(F)(F)F)c1)C1CC(=O)CC(=O)C1 [NU‐9]
Fig. 2O group mean (total number of mitochondria/UMN) [1]: 21.13
Fig. 2P group mean (percentage of healthy mitochondria/UMN) [1]: 86.3
Fig. 2R group mean (average length of ER cisternae/UMN) [1]: 1.136
average length of ER cisternae [2]: 1.13 ± 0.1 µm
number of healthy ER cisternae [2]: 14 ± 2 ER cisternae/UMN/section
percentage of healthy mitochondria in UMNs [2]: 86% ± 3%
total number of mitochondria in UMNs [2]: 21 ± 2 mitochondria/UMN/section
